“Also recorded” adds a separate entry of the source.
Assays:
Assay type in all cases: cell-based, human
MCF-7 cells [1] = experiment: Cell morphology after exposure to growth factor; settings: MCF-7 / MCF-7M, 6-14 days in growth factor
Excerpt: FIG. 4 is a photographic representation showing morphology of growth factor stimulated MCF-7M cells. Following 1 week in suspension culture containing the various growth factors, MCF-7M cells were cytospun onto slides and subsequently stained with Giemsa.
FIG. 11 is a photographic representation showing cell morphology after exposure to OSM. MCF-7 cells from control cultures and appears of cells after 7 days in OSM. A) Control cells, 10× magnification. B) OSM treated cells, 10× magnification. C) OSM treated cells, 40× magnification. D) OSM treated cells, 100× magnification.
FIG. 15 is a photographic representation showing cell morphology after exposure to OSM. MCF-7 cells from control cultures (Panel A) and appearance of cells after culture for 14 days in OSM (10 ng/ml) (Panel B). MDA-MB-231 cells from control cultures (Panel C) and appearance of cells after culture for 7 days in OSM (Panel D).

BT-549 cells = experiment: Proliferation of BT-549 cells in culture, viable cell count; settings: for effect on cell proliferation (in words): BT-549
Protocol: FIGS 5A and B are graphical representations of BT-549 cells in liquid culture. 10^4 BT-549 cells were cultured in 500 μl RPMI/10% (v/v) BCS containing the relevant concentration of each of the growth factors (OSM, IL-11 and IL-6). After 10 days, culture viable cells were counted using a hemacytometer. Cell numbers reported here in the two graphs are the results of 1 experiment performed in triplicate.
FIG. 18 is a graphical representation showing BT-549 cells after 10 days in suspension culture. 10^4BT-549 cells were cultured in 500 μl RPMI/10% (v/v) BCS with the indicated growth factor. After 10 days culture viable cells were counted using a hemacytometer. Results are from 6 experiments, each performed in triplicate.
(§1) Proliferation of the cell lines was measured in monolayer culture in 24 well Costar cluster plates. Cells were plated at an initial density of 10 000 cells/ml and cultured in 500 μl RPMI-1640 supplemented with 10% (v/v) (v/v) BCS and with each growth factor as indicated (LIF, 1000 U/ml; IL-6, 100 ng/ml; OSM, 10 ng/ml; CNTF, 10 ng/ml; IL-11, 100 ng/ml). These concentrations are maximally active in other systems (Nandurkar et al., 1996; Hilton et al., 1994; Zhang et al., 1994; Tanigawa et al., 1995). After 7 or 10 days at 37° C. in a fully humidified atmosphere containing 10% (v/v) CO2 in air, cells were trypsinised and counted using a haemocytometer and an inverted microscope. Cell viability was assessed using eosin exclusion. Results were expressed as a percentage of the corresponding untreated control value for that experiment.

MCF-7 cells [2] = experiment: Proliferation of MCF-7 cells in monolayer (liquid) culture, viable cell count; settings: for mean inhibition of cell proliferation: MCF-7, 7 days exposure, LIF 1000 U/ml, IL-6 100 ng/ml, OSM 10 ng/ml, IL-11 100 ng/ml, vs untreated control; for effect on cell proliferation (in words): MCF-7 / MCF-7M, up to 1 week culture
Protocol: FIGS. 2A, B and C are graphical representations of MCF-7M cells in liquid culture. 10^4 MCF-7M cells were cultured in 500 μl RPMI/10% bovine calf serum (BCS) (v/v) containing the indicated concentration of each of the growth factors (OSM or LIF). After 7 days culture viable cells were counted using a hemacytometer. Cell numbers reported here are the result of one experiment, each performed in triplicate.
FIG. 7 is a graphical representation showing inhibition of proliferation of MCF-7 cells by Oncostatin M (OSM). 10^4 MCF-7 cells were cultured in 500 μl RPMI/10% (v/v) BCS with the indicated concentrations of OSM. At 2, 4 and 6 days, viable cells were counted using a hemacytometer. Results are from 3 experiments, each performed in triplicate.
FIG. 8 is a graphical representation showing that MCF-7 cells are inhibited in a dose-dependent fashion by Oncostatin M (OSM). 10^4 MCF-7 cells were cultured in 500 μl RPMI/10% (v/v) BCS with the indicated concentrations of OSM. After 7 days viable cells were counted, and cell number expressed as a percentage of the corresponding untreated control value.
FIG. 16 is a graphical representation showing inhibition of MCF-7 cells after 7 days in suspension culture. 10^4MCF-7 cells were cultured in 500 μl RPMI/10% (v/v) BCS with the indicated growth factor. After 7 days viable cells were counted using a hemacytometer. Results are from 9 experiments, each performed in triplicate.
as §1

[3] = test system: four breast cancer cell lines; experiment: Proliferation of four breast cancer cell lines in monolayer culture (summary)
Protocol: as §1
Experiments were performed to determine whether these morphological changes were associated with alterations in cell growth. The proliferation of four breast cancer cell lines was examined in monolayer cultures containing either IL-6, LIF, OSM, CNTF or IL-11.

MCF-7 cells [4] = experiment: Clonogenic assay in agar after monolayer culture; settings: MCF-7, 7 days monolayer then 14 days agar
Protocol: FIG. 3 is a graphical representation showing clonogenicity of MCF-7M cells. Following suspension culture MCF-7M cell viability was measured by agar culture. Cells were plated in agar with the indicated concentrations of each of the growth factors. After 14 days culture colonies of cells were counted. Cell numbers reported here are the results of 3 experiments, each performed in triplicate, and are expressed according to the number of cells that went into suspension culture.
FIG. 17 is a graphical representation showing clonogenicity of MCF-7 cells after 1 week in suspension culture. Following suspension culture clonogenicity of MCF-7 cells was assayed in agar culture. Cells were plated in agar with the indicated growth factor and maintained at 37° C0 in a humidified incubator with 5% CO2 in air. After 14 days colonies of cells were counted. Results are from 9 experiments using IL-6, LIF and OSM, and 5 experiments using CNTF and IL-11. Each experiment was performed in triplicate, and colony numbers are expressed as a percentage of untreated controls.
Clonogenic potential of cells following monolayer culture was assessed in a semi-solid culture medium. Cells were cultured in triplicate in 35 mm Petri dishes containing 1 ml Iscove's modified Dulbecco's medium (IMDM) supplemented with 25% (v/v) (v/v) BCS, 0.3% (w/v) agar with final concentration of growth factor as outlined above, and with 200 cells per ml for control cultures Cultures were maintained at 37° C. in a humidified incubator with 5% (v/v) CO2 in air. After 14 days, colonies were enumerated using a dissecting microscope. A colony was defined as a clone of greater than 40 cells. All cultures were performed in triplicate.

Row | Substance | cell morphology (in words) (MCF-7 cells [1]) | effect on cell proliferation (in words) (BT-549 cells) | mean inhibition of cell proliferation (MCF-7 cells [2]) [%] | effect on cell proliferation (in words) (MCF-7 cells [2]) | cell lines with significant inhibition of cellular proliferation [3] | effect on colony formation / clonogenic potential (in words) (MCF-7 cells [4]) | mean growth inhibition (BT-549 cells; BT-549, 7 days) [%] | growth inhibition, up to (maximum observed) (BT-549 cells; BT-549, 10 days) | mean growth inhibition (BT-549 cells; BT-549, 10 days) [%] | inhibition of cell proliferation, up to (maximum observed) (MCF-7 cells [2]; MCF-7, 7 days exposure to OSM, 9 experiments)
1 | Leukemia Inhibitory Factor [LIF] | appeared larger than the control cells | failure of BT-549 cells and MDA-MB-231 cells to respond | 37 | induced inhibition | ¼ | significant reduction of colony formation | – | – | – | –
2 | oncostatin M [OSM] | more abundant cytoplasm and vacuolation; also recorded: more fibroblastic phenotype; also recorded: larger and more vacuolated than control cells | inhibition of cell proliferation | 85 | inhibition of cell proliferation; also recorded: inhibition of cellular proliferation | ¾ | significant reduction of colony formation | 60 | up to 80% | 60 | up to 94%

— patent US20020106347A1, “Cytokines and their use in treatment and/or prophylaxis of breast cancer” (priority 1995, published 2002)
